Data: paper PMC10347124, “Exploring the Anticancer Potential of Premna resinosa (Hochst.) Leaf Surface Extract: Discovering New Diterpenes as Heat Shock Protein 70 (Hsp70) Binding Agents” (Plants, 2023)

Assays:
[1] = biological target: T1, Hsp70 (Heat Shock Protein 70 1A) (Homo sapiens, UniProt P0DMV8); test: SPR (Biacore […]), single-site model; format: binding
T1 construct: gene HSPA1A; recombinant Hsp70 immobilized on CM5 chip

[2] = biological target: T1, Hsp70 (Heat Shock Protein 70 1A); test: SPR (Biacore […]), single-site model; positive control; format: binding

T1 sequence (P0DMV8 2-641): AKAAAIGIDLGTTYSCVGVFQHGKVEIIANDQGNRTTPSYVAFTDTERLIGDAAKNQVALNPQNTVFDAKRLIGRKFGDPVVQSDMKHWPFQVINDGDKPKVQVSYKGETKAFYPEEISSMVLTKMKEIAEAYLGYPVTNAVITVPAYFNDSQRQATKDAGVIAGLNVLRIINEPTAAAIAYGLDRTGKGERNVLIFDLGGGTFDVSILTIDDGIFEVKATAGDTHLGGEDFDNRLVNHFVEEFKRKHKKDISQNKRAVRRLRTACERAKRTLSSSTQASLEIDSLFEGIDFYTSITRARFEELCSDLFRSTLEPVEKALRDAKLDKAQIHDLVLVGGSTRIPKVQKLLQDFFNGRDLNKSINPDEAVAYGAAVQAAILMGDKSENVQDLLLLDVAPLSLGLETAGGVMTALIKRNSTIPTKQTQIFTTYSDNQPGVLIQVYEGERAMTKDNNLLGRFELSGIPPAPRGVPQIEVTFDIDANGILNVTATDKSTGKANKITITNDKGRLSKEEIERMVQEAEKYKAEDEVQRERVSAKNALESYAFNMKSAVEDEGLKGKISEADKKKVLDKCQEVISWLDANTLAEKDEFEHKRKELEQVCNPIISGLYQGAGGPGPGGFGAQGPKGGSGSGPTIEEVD

Kd [1]	Kd [2]	SMILES
1000 nM	–	CC1=CCC2C(C)(C)CCCC2(C)C1CC(O)C1=CC(=O)OC1 (single isomer, unassigned; ent-12) [compound 4, ent-12-hydroxylabda-7,13-dien-15,16-olide]
–	81.4 nM	C=C1C(=O)[C@]23[C@H](O)[C@H]1CC[C@H]2[C@@]12CO[C@]3(O)[C@@H](O)[C@@H]1C(C)(C)CC[C@@H]2O [oridonin]
